Data on five molecules can be found in PMC11923636, “Synthesis, Pharmacological Evaluation, and Molecular Modeling of Phthalimide Derivatives as Monoamine Oxidase and Cholinesterase Dual Inhibitors” (ACS Omega, 2025).

The test system of data set [1] is AChE. The settings on record: cited from earlier work.
The subject of data set [2] is MAO-B. To be noted: weak inhibition compared to the standard; ref number not given; cited from earlier work.
Data set [3] has as its target T1, equine serum lyophilized BChE (Equus caballus, UniProt P81908).
T1 construct: Equine Serum lyophilized BChE; from tissue; host or cells: equine serum
Put plainly: biochemical. To be noted: mean ± SEM, n = 3; read-out: IC50 (μM) ± SEM eqBChE. The method, then: (§1) The synthesized compounds were evaluated for their inhibition potential against cholinesterases (Electrophorus electricus AChE and equine serum lyophilized BChE).
(§2) The cholinesterase in vitro bioassay for the synthesized compounds was performed using already reported protocols.[29],[30] Ellman’s assay method was used to study the inhibition of Electrophorus electricus AChE and Equine Serum lyophilized BChE. Stock solutions of synthesized compounds were prepared in potassium phosphate buffer (pH 8.0). A sufficient amount of 5,5-dithio-bis-2-nitrobenzoic acid (DTNB, Ellman’s reagent), a stock solution of synthesized compounds, and 0.03 U/ml of the enzyme (AChE or BChE) were added to a 96-well plate and incubated at 30 °C for 10 min. Subsequently, 1 mM ATCI or BTCI was added, and the reaction mixture was incubated for 15 min. […] Sample concentration was plotted against inhibitory activity to obtain IC50 values.

The target in data set [4] is Electrophorus electricus AChE (Electrophorus electricus, UniProt O42275). Put plainly: biochemical. The format is biochemical. The method, then:
as §1, §2

Data set [5] relates to SH-SY5Y neuroblastoma cells. The format is cell-based. To be noted: MTT. On the procedure: To determine the biological safety of the synthesized compounds, we performed a cytotoxicity study using a human SH-SY5Y neuroblastoma cell line.
SH-SY5Y cells were cultured in 96-well plates (1 × 10^5 cells/well) in a medium containing fetal bovine serum (FBS), penicillin (100 U/ml), and streptomycin ([…]) at 37 °C and 5% CO2. […] Subsequently, synthesized compounds were added to cells, followed by the addition of 20 μL of MTT reagent (10 mg/mL) at the specified time. Plates were then incubated at 37 °C and 5% CO2, and purple color precipitate formation was observed by a microscope. Lastly, DMSO ([…]) was added to solubilize precipitates, and the plates were read at 570 nm to determine the cell viability. Results are expressed as percentage growth of cells, in which their viability is compared to control cells in the presence or absence of synthesized compounds and a standard. The following formula was utilized for the measurement of the % cell viability. [drawing 1]

Data set [6] has as its target T2, human MAO-A (Homo sapiens, UniProt P21397).
T2 sequence (P21397 1-527): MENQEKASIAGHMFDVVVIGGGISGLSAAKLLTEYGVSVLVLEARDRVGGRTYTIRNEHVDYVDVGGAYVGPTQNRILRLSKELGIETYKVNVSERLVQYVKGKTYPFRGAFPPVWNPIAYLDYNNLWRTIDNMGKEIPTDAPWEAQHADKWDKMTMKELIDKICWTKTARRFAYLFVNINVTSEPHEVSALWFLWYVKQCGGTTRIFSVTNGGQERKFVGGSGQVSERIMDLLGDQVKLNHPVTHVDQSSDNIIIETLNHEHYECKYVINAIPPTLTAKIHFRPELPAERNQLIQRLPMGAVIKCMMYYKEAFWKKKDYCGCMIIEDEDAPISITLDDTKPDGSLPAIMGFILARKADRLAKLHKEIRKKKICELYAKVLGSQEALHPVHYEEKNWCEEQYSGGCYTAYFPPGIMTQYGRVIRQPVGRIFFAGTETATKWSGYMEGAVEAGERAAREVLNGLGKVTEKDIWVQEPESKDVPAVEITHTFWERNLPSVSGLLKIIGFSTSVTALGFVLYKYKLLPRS
In words: Human MAO isoform inhibition assay (fluorometric), MAO-A. The format is biochemical. The settings on record: mean ± SEM, n = 3; read-out: IC50 (μM) ± SEM hMAO-A. On the procedure:
(§3) The human MAO isoform assay was also carried out using a fluorescence-based assay protocol according to the reported literature.
(§4) Inhibitory activity of the synthesized compounds against MAO isoforms, specifically human MAO-A and MAO-B, was determined by using benzylamine and tyramine substrates in the dark (protected from light) in a 96-well plate by an already reported fluorometric method.[31],[32]

Data set [7] can be described thus: in vitro. On the procedure: A fundamental requirement for the effectiveness of anti-AD drugs is their capability to traverse the BBB (blood–brain barrier). […]
Briefly, synthesized compounds were first dissolved in DMSO (10 mM) that was further diluted by the addition of phosphate buffer ([…]) having a pH of 7.4. PBL dissolved in dodecane was used for coating the membranes of the donor plates. Then, the test compound (0.2 mL) was added to the plate, followed by PBS (0.2 mL; pH = 7.4) to the acceptor plate, which was further placed under the donor plate in order to form a “sandwich”. […] A UV plate reader was employed for the measurements of the drug concentration in donor, acceptor, and reference wells. The permeability (Pe) of the compounds was measured by using the following formula. [drawing 2]

For data set [8], the target named is T3, mice brain MAO-B (Mus musculus, UniProt Q8BW75).
T3 construct: from tissue; host or cells: ICR mouse brain homogenate pellet
T3 sequence (Q8BW75 1-520): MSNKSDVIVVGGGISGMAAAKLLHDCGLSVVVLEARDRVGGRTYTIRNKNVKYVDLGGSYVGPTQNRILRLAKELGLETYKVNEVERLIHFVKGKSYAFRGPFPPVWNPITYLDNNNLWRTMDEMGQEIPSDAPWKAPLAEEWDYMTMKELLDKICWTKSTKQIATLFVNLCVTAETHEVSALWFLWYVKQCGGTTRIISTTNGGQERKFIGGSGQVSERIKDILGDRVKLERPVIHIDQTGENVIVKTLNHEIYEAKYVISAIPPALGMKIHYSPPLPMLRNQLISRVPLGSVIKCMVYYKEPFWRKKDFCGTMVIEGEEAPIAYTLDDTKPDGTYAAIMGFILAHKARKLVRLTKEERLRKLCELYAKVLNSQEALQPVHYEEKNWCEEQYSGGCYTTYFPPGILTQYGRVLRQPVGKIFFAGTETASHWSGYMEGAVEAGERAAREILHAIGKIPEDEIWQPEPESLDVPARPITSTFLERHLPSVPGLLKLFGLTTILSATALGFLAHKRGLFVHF
Put plainly: Ex vivo MAO-B inhibition reversibility time course. The class given is in vivo, ICR mice. To be noted: single ip dose. On the procedure:
After the experiments, the animals were euthanized following Animal Euthanasia (AVMA Guidelines) guidelines to ensure humane treatment. Five groups of ICR mice were administered test samples by intraperitoneal injection, and the intact brains were excised and were then frozen for almost 1 h (−20 °C). Brain tissue ([…]) was suspended in sucrose (0.3 M) using a homogenizer (Ultra-Turrax T8; at 60 Hz for almost 70 s) and then subjected to centrifugation for 10 min at 1500 rpm (4 °C). 200 μL of supernatant was collected and centrifuged for 20 min at 15,000 rpm and 4 °C. Subsequently, the formed pellet was resuspended in KHPO4 solution (pH 7.2, 600 μL) and then subjected to 20 min centrifugation at 15,000 rpm and 4 °C. This process was repeated three times. Enzyme activity was determined using an Assay Kit (monoamine oxidase). […] The mice were then sacrificed at intervals ranging from 0.5 to 48 h.[34]

The target of data set [9] is T4, human MAO-B (Homo sapiens, UniProt P27338).
T4 sequence (P27338 1-520): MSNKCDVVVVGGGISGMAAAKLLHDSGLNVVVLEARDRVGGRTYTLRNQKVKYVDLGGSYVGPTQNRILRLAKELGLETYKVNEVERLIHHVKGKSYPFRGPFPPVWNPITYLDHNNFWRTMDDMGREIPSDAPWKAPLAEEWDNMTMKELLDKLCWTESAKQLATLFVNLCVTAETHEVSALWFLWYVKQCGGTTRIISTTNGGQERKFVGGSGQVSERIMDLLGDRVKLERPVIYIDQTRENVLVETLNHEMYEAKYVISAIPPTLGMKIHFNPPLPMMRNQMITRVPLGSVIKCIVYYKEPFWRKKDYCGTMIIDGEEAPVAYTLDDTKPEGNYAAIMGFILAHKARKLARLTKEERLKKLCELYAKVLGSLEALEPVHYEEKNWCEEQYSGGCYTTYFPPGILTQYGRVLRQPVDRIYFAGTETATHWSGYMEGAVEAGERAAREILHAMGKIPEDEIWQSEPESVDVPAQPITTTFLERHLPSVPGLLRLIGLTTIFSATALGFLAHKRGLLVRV
In words: Human MAO isoform inhibition assay (fluorometric), MAO-B. The class given is biochemical. The method, then:
as §3, §4

For data set [10], the target named is BChE. To be noted: read-out: BChE enzyme inhibition dissociation constant (Ki value); cited from earlier work.

Marks after values point to notes of the source that are not given here.

As usually defined, the IC50 is the point on the concentration scale where inhibition reaches its midpoint. What is called Papp is a coefficient for how fast a substance crosses the barrier. Lower therefore signals poor permeation. As usually defined, the Ki is a measure of affinity in units of concentration, obtained from inhibition or displacement.

Electrophorus electricus AChE, sequence (O42275 24-633): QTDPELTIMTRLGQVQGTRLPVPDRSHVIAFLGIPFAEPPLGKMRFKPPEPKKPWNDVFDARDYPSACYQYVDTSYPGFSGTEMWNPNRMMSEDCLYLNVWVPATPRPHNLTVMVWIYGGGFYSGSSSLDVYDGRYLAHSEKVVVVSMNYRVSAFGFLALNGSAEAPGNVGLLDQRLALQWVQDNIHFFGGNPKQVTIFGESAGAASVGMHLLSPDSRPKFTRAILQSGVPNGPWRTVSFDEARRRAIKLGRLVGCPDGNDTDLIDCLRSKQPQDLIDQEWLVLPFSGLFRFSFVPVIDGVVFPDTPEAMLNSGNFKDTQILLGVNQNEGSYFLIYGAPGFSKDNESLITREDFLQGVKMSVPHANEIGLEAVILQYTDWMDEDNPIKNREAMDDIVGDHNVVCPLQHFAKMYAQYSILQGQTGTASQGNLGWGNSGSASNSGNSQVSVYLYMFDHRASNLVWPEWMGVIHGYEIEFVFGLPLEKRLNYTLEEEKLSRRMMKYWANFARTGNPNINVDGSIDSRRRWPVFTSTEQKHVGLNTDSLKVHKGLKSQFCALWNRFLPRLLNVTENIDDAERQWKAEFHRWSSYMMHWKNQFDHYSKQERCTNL
T1 sequence (P81908 whole entry): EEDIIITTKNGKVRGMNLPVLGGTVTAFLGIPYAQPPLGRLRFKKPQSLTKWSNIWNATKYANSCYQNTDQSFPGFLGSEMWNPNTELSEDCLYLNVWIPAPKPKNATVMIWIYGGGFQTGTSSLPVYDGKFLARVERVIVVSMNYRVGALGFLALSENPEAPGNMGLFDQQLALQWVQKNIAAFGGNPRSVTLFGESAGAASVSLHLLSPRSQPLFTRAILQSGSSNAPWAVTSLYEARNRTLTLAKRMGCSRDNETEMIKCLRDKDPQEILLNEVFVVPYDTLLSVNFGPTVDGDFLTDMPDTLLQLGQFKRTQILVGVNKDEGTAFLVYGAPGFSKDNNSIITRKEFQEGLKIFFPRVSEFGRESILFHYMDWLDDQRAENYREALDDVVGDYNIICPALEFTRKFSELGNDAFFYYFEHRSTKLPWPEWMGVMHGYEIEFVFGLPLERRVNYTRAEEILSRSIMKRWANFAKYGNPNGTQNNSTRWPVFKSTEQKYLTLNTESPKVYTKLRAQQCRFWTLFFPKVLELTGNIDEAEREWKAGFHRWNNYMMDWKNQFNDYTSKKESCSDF

For the molecule `COc1cc(CN2C(=O)c3cc(Cl)c(Cl)cc3C2=O)cc(OC)c1OC` [II], in data set [1] (reported in the literature, ref number not given), the IC50 was 13.5 nM.

Consider N-benzylphthalimide [V], for which, in data set [2], the IC50 was 10.5 µM.

In the case of `O=C1c2ccccc2C(=O)N1Cc1ccc(-c2ccc(C(F)(F)F)cc2)cc1` [3e], the concentration for half-maximal inhibition (IC50) is 6.29 ± 0.17 µM in data set [3]; 0.24 ± 0.01 µM in [4] (mean ± SEM, n = 3, read-out: IC50 (μM) ± SEM eeAChE); 16.5 ± 0.66 µM in [6]; 0.11 ± 0.01 µM in data set [9] (mean ± SEM, n = 3, read-out: IC50 (μM) ± SEM hMAO-B). Moreover, the “SI = IC50 of BChE/IC50 of AChE” value in [4] (selectivity index) was determined as 26. Also, the “cytotoxicity on SH-SY5Y cells” value in [5] (10, 20, 30, and 50 μM) was “No cytotoxicity”. The “neurotoxicity on SH-SY5Y cells” value in data set [5] (higher concentrations (100 μM)) is given as “negligible neurotoxicity”. The apparent permeability coefficient (Papp) at 20 h in [7] (PAMPA, pH 7.4) was found to be 18.7 ± 1.12 ×10⁻⁶ cm/s. For the same molecule, the “prediction of CNS penetration” value in data set [7] (class from PAMPA-BBB Pe) is listed as “CNS+ ^b (“CNS+” (prediction of high BBB permeation); Pe (10^–6 cm/s) > 4.39)”. In addition, the results for the “activity of MAO-B recovered” value in [8] (after 5 h) and in data set [8] (after 24 h) were 50% and roughly 95%, respectively. Moreover, in [9] (selectivity index), the “SI (IC50 hMAO-A/IC50 hMAO-B)” value was 150.

As for `O=C1c2ccccc2C(=O)N1C/C=C/CN1CCN(Cc2ccccc2)CC1` [III], in data set [1] (read-out: AChE enzyme inhibition dissociation constant (Ki value)), the Ki is 193 µM.

For `O=C1c2ccccc2C(=O)N1CCc1cc2ccccc2[nH]1` [IV], the Ki in data set [10] was 100 µM.
